# Molecular target: HPK1 (Homo sapiens, UniProt Q92918)
# Assay: HPK1 biochemical assay (ADP-GLO Kinase Assay)
# Settings: B*: testing performed in a first testing facility; read-out: HPK1 IC50 (nM) Relative, B*
# Excerpt: IC50 values of any compounds can be determined accordingly over a range of inhibitor concentrations. In addition, the inhibitory effect of the compounds can also be assess using a biological assay, to determine the effect of the compounds on cytokine secretion by T cells following TCR and CD28 stimulation.
# Biology Example 1 HPK1 Biochemical Assay
# This example used the ADP-GLO™ Kinase Assay to measure the effect of potential HPK1 inhibitor compounds on HPK1 kinase activity.
# The ADP-GLO™ Kinase Assay (Promega Corp., Madison, WI) measures ADP formed from a kinase reaction. According to the manufacture, the ADP formed in a kinase assay is first converted into ATP, which is then used to generate light in a luciferase reaction. The luminescence generated correlates with kinase activity. An exemplary experimental setting is described below, though minor adjustments can be made in individual assays.
# Serial 3-fold dilution of compounds from 10 μM (top concentration) to 0.508 nM (lowest concentration). Positive control is 10 μM Reference+enzyme+substrate. Negative control is 1% DMSO+enzyme+substrate.
# • 1. Buffer Preparation • 40 mM Tris pH7.5; 20 mM MgCl2, 0.1 mg/ml BSA, 50 μM DTT Buffer Stock
# Add 20 mL 1M Tris and 10 mL 1M MgCl2 to 470 mL ddH2O to get buffer stock, and stock at RT. • 2. Preparing Fresh 1* Assay Buffer
# • 3. Compounds Preparation • 1) The compounds were diluted to 1 mM, by mixing 10 μL of 10 mM respective compound stocks with 90 μL of DMSO. • 2) The compounds were then diluted 3-fold for 10 doses (5 μL to 10 μL dilution) by BRAVO. The top compound conc. was 1 mM (100×), DMSO Conc. was 100%. • 3) Transfer 100 nL of each diluted compound sample to 384-well plate (Corning-4512) by ECHO. • 4) Centrifuge the plate at 1,500 rpm for 1 minute. • 4. Preparation of 2×ATP-MBP Mixture: • 20 μM ATP, 0.2 μg/μL MBP in Kinase Buffer (final concentration: 10 μM ATP, 0.1 MBP)
# • 5. Preparation of 2×HPK1 working solution with assay buffer. • HPK1 final concentration was 0.6 ng/μL. […] Incubate at 25° C. for 40 min. • 11. Record luminescence signal on an Envision plate reader (384-CTG). 5. Data Analysis
# The percent (%) inhibition at each concentration of compound is calculated based on and relative to the signal in the High and Low control wells contained within each assay plate. […] The concentrations and % inhibition values for tested compounds were plotted and the concentration of compound required for 50% inhibition (IC50) was determined with a Three-parameter logistic dose response equation. The endpoint value (IC50) for the reference peptide/compound was evaluated in each experiment as a quality control measure. If the endpoint value was within 3-fold of the expected value, then the experiment was deemed acceptable.
# Sequence of HPK1 (Q92918 whole entry): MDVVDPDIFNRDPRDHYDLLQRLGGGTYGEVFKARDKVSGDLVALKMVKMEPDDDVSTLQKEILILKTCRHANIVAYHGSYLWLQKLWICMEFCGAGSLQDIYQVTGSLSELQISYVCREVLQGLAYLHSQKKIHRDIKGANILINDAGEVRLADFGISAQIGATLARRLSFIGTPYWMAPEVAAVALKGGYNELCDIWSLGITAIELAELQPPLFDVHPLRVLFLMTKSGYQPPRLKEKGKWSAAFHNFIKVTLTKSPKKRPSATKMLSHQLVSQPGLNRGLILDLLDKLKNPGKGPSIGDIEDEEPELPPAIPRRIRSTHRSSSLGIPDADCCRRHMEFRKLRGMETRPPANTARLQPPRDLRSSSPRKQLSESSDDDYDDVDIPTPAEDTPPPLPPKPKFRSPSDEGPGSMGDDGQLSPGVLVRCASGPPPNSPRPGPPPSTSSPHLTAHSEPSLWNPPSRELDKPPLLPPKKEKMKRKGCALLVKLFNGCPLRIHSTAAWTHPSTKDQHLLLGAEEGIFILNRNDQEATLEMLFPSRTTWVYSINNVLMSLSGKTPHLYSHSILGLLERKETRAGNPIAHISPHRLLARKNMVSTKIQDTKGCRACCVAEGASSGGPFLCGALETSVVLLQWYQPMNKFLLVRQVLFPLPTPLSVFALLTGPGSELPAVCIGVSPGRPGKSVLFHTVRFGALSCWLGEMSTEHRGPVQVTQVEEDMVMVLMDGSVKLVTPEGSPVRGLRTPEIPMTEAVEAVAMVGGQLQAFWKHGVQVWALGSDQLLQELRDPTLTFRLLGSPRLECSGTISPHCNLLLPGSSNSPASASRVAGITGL
row,SMILES,IC50
1,"COc1cc2c(cc1Nc1ncc(Cl)c(N3CCc4ccccc4C3)n1)CN(C)CC2 [Example 5, N-(5-chloro-4-(3,4-dihydroisoquinolin-2(1H)-yl)pyrimidin-2-yl)-6-methoxy-2-methyl-1,2,3,4-tetrahydroisoquinolin-7-amine]",100 to 500 nM
2,"COc1cc2c(cc1Nc1ncc(Cl)c(N3CCc4c(Cl)cccc43)n1)CN(C)CC2 [Example 12, N-(5-chloro-4-(4-chloroindolin-1-yl)pyrimidin-2-yl)-6-methoxy-2-methyl-1,2,3,4-tetrahydroisoquinolin-7-amine]",100 to 500 nM
3,"COc1cc2c(cc1Nc1ncc(Cl)c(N3CCc4cccnc43)n1)CN(C)CC2 [Example 17, N-(5-chloro-4-(2,3-dihydro-1H-pyrrolo[2,3-b]pyridin-1-yl)pyrimidin-2-yl)-6-methoxy-2-methyl-1,2,3,4-tetrahydroisoquinolin-7-amine]",100 to 500 nM
4,COc1cc2c(cc1Nc1ncc(Cl)c(N3CCc4ccccc43)n1)CN(C(=O)CN(C)C)CC2 [Example 26],≤ 100 nM
5,COc1cc2c(cc1Nc1ncc(Cl)c(-n3c(C(=O)N(C)C)cc4ccccc43)n1)CN(C)CC2 [Example 28],> 1000 nM
6,"COc1cc2c(cc1Nc1ncc3ccn(-c4cccnc4)c3n1)CN(C)CC2 [Example 40, 6-Methoxy-2-methyl-N-(7-(pyridin-3-yl)-7H-pyrrolo[2,3-d]pyrimidin-2-yl)-1,2,3,4-tetrahydroisoquinolin-7-amine]",≤ 100 nM
7,"COc1cc2c(cc1Nc1ncc3ncn(-c4ccccc4P(C)(C)=O)c3n1)CN(C)CC2 [Example 45, (2-(2-((6-Methoxy-2-methyl-1,2,3,4-tetrahydroisoquinolin-7-yl)amino)-9H-purin-9-yl)phenyl)dimethylphosphine oxide]",> 1000 nM
8,"COc1cc2c(cc1Nc1ncc3c(n1)N(c1ccccc1)CCO3)CN(C)CC2 [Example 46, N-(6-methoxy-2-methyl-1,2,3,4-tetrahydroisoquinolin-7-yl)-8-phenyl-7,8-dihydro-6H-pyrimido[5,4-b][1,4]oxazin-2-amine]",100 to 500 nM
9,"COc1cc2c(cc1Nc1ncc(Cl)c(-c3ccnc4ccccc34)n1)CN(C)CC2 [Example 49, N-(5-chloro-4-(quinolin-4-yl)pyrimidin-2-yl)-6-methoxy-2-methyl-1,2,3,4-tetrahydroisoquinolin-7-amine]",100 to 500 nM
10,"CCc1c[nH]c2ncc(-c3ccc(Cl)c(P(C)(C)=O)c3)cc12 [Example 52, (2-Chloro-5-(3-ethyl-1H-pyrrolo[2,3-b]pyridin-5-yl)phenyl)dimethylphosphine oxide]",≤ 100 nM
11,"CCc1c[nH]c2ncc(-c3cccc(P(C)(C)=O)c3)cc12 [Example 53, (3-(3-Ethyl-1H-pyrrolo[2,3-b]pyridin-5-yl)phenyl)dimethylphosphine oxide]",100 to 500 nM
12,"CCc1c[nH]c2ncc(-c3ccc(OC)c(P(C)(C)=O)c3)cc12 [Example 54, (5-(3-Ethyl-1H-pyrrolo[2,3-b]pyridin-5-yl)-2-methoxyphenyl)dimethylphosphine oxide]",100 to 500 nM
13,"CCc1c[nH]c2ncc(-c3cc(C)cc(P(C)(C)=O)c3)cc12 [Example 56, (3-(3-Ethyl-1H-pyrrolo[2,3-b]pyridin-5-yl)-5-methylphenyl)dimethylphosphine oxide]",500 to 1000 nM
14,CCc1c[nH]c2ncc(-c3ccc(N4CCCC4)c(P(C)(C)=O)c3)cc12 [Example 59],100 to 500 nM
15,"CCc1c[nH]c2ncc(-c3ccc(NC)c(P(C)(C)=O)c3)cc12 [Example 71, (5-(3-Ethyl-1H-pyrrolo[2,3-b]pyridin-5-yl)-2-(methylamino)phenyl)dimethylphosphine oxide]",100 to 500 nM
16,COc1cc2c(cc1Nc1ncc3ccc(P(C)(C)=O)cc3n1)CN(C)CC2 [Example 172],100 to 500 nM

# From patent publication US12612424B2, “HPK1 inhibitors and uses thereof” (Regor Pharmaceuticals, Inc., priority 2019, dated 2026)
